In patent publication US20240391862A1, “(1,4,5-TRISUBSTITUTED-1H-PYRAZOL-3-YL)OXY-2-ALKOXY ALKYL ACIDS AND THEIR DERIVATIVES, THEIR SALTS AND THEIR USE AS HERBICIDAL AGENTS” (Bayer AKtiengesellschaft, priority 2021, published 2024):

Key:
[1] = tested on: ABUTH; test: Post-emergence herbicidal effect, greenhouse pot test; type: in vivo, Abutilon theophrasti; settings: visual rating about 3 weeks after treatment; for pest or weed control at 320 g/ha / pest or weed control at 80 g/ha: Abutilon theophrasti, 504 h, read-out: Post-emergence effect against ABUTH
Method in brief: (§1)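 Weeds sown in sandy loam, greenhouse-grown 2–3 weeks, then sprayed at one-leaf stage with WP or EC formulations in water plus 0.5% additive at 600 l/ha. Rates 20 to 320 g/ha. Visual rating after about 3 weeks versus untreated controls (100% = plants dead, 0% = like control).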

[2] = tested on: KCHSC; test: as above; type: in vivo; settings: 320 g/ha
Method in brief: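 Visual rating of activity against untreated plants (100% = plants died, 0% = no effect), done about 3 weeks after treatment. Compounds applied at 20–320 g/ha as aqueous spray (600 l/ha, 0.5% additive) from WP or EC formulations onto one-leaf-stage plants grown in sandy loam under greenhouse conditions.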

[3] = tested on: ALOMY; test: as above; type: in vivo, Alopecurus myosuroides; settings: 320 g/ha, visual rating about 3 weeks after treatment; for pest or weed control at 320 g/ha: Alopecurus myosuroides, 504 h, read-out: Post-emergence effect against ALOMY
Method in brief: as §1

[4] = tested on: ECHCG; test: as above; type: in vivo, Echinochloa crus-galli; settings: for Post-emergence effect against ECHCG: 20 g/ha, visual rating about 3 weeks after treatment; for pest or weed control at 320 g/ha / pest or weed control at 80 g/ha: Echinochloa crus-galli, 504 h, read-out: Post-emergence effect against ECHCG in %
Method in brief: as §1

[5] = tested on: DIGSA; test: as above; type: in vivo, Digitaria sanguinalis; settings: visual rating about 3 weeks after treatment; for Post-emergence effect against DIGSA / pest or weed control at 320 g/ha: 320 g/ha
Method in brief: as §1

[6] = tested on: SETVI; test: as above; type: in vivo, Setaria viridis
Method in brief: as §1

[7] = tested on: VIOTR; test: as above; type: in vivo, Viola tricolor; settings: for pest or weed control at 80 g/ha / pest or weed control at 320 g/ha: Viola tricolor, 504 h, read-out: Post-emergence effect against VIOTR in %
Method in brief: as §1

[8] = tested on: PHBPU; test: as above; type: in vivo, Ipomoea purpurea; settings: for pest or weed control at 80 g/ha / pest or weed control at 320 g/ha: Ipomoea purpurea, 504 h, read-out: Post-emergence effect against PHBPU in %
Method in brief: as §1

[9] = tested on: MATIN; test: as above; type: in vivo, Tripleurospermum inodorum
Method in brief: as §1

[10] = tested on: POLCO; test: as above; type: in vivo, Fallopia convolvulus
Method in brief: as §1

[11] = tested on: AMARE; test: as above; type: in vivo, Amaranthus retroflexus; settings: visual rating about 3 weeks after treatment
Method in brief: as §1

[12] = tested on: VERPE; test: as above; type: in vivo, Veronica persica; settings: for pest or weed control at 320 g/ha / pest or weed control at 80 g/ha: Veronica persica, 504 h, read-out: Post-emergence effect against VERPE in %
Method in brief: as §1

[13] = tested on: AVEFA; test: as above; type: in vivo, Avena fatua; settings: 320 g/ha, visual rating about 3 weeks after treatment; for pest or weed control at 320 g/ha: Avena fatua, 504 h, read-out: Post-emergence effect against AVEFA
Method in brief: as §1

[14] = tested on: TRZAS; test: Post-emergence herbicidal effect and crop plant compatibility, greenhouse pot test; type: in vivo, Triticum aestivum; settings: for Post-emergence effect at 20 g/ha against TRZAS in % / percent crop injury (phytotoxicity) to wheat, post-emergence at 20 g/ha: one-leaf stage, rated visually after about 3 weeks vs untreated controls; for percent crop injury (phytotoxicity) to wheat, post-emergence at 20 g/ha: Triticum aestivum, 504 h, read-out: Post-emergence effect at 20 g/ha against TRZAS in %
Method in brief: (§2)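 Visual % activity scored roughly 3 weeks post-spray against untreated plants, where 100% means death and 0% equals control. Plants were treated at the one-leaf stage, 2 to 3 weeks after sowing in sandy loam, at 20 to 320 g/ha.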

[15] = tested on: ZEAMX; test: as above; type: in vivo, Zea mays; settings: one-leaf stage, rated visually after about 3 weeks vs untreated controls; for plant injury at 20 g/ha: Zea mays, 504 h, read-out: Post-emergence effect at 20 g/ha against ZEAMX in %
Method in brief: as §2

[16] = tested on: LOLRI; test: Post-emergence herbicidal effect, greenhouse pot test; type: in vivo, Lolium rigidum; settings: 320 g/ha; for pest or weed control at 320 g/ha: Lolium rigidum, 504 h, read-out: Post-emergence effect against LOLRI in %
Method in brief: as §1

[17] = Setaria viridis, 504 h, 320 g/ha, read-out: Post-emergence effect against SETVI in %
[18] = Fallopia convolvulus, 504 h, 320 g/ha, read-out: Post-emergence effect against POLCO in %
[19] = Amaranthus retroflexus, 504 h, 320 g/ha, read-out: Post-emergence effect against AMARE
[20] = Digitaria sanguinalis, 504 h, read-out: Post-emergence effect against DIGSA
[21] = Tripleurospermum inodorum, 504 h, 320 g/ha, read-out: Post-emergence effect against MATIN in %

Compound | Post-emergence effect against ABUTH ([1]; 320 g/ha) [%] | Post-emergence effect against ECHCG in % ([4]; 320 g/ha) [%] | Post-emergence effect against DIGSA [5] [%] | Post-emergence effect against SETVI in % ([6]; 320 g/ha) [%] | Post-emergence effect against PHBPU in % ([8]; 320 g/ha) [%] | Post-emergence effect against AMARE ([11]; 320 g/ha) [%] | Post-emergence effect against AVEFA [13] [%] | Post-emergence effect at 20 g/ha against TRZAS in % [14] [%] | Post-emergence effect at 20 g/ha against ZEAMX in % [15] [%] | pest or weed control at 320 g/ha ([1]; 320 g/ha) [%] | pest or weed control at 320 g/ha [16] [%] | pest or weed control at 320 g/ha ([4]; 320 g/ha) [%] | pest or weed control at 320 g/ha [6, 17] [%] | pest or weed control at 80 g/ha ([7]; 80 g/ha) [%] | pest or weed control at 320 g/ha ([7]; 320 g/ha) [%] | pest or weed control at 320 g/ha ([8]; 320 g/ha) [%] | pest or weed control at 320 g/ha [11, 19] [%] | pest or weed control at 320 g/ha ([12]; 320 g/ha) [%] | pest or weed control at 320 g/ha [13] [%] | percent crop injury (phytotoxicity) to wheat, post-emergence at 20 g/ha [14] [%] | other results
CCOC(Oc1nn(-c2ccccc2F)c(-c2ccc(F)nc2)c1Cl)C(=O)OCC(C)C(=O)OC (racemic) [Example I-54] | 80 | 90 | 90 | 90 | 90 | 80 | 90 | 0 | 0 |  |  |  |  |  |  |  |  |  |  |  | Post-emergence effect against KCHSC in % [2]: 80%; Post-emergence effect against ALOMY [3]: 100%; Post-emergence effect against ECHCG [4]: 80%; Post-emergence effect against ECHCG in % ([4]; 80 g/ha): 90%; Post-emergence effect against SETVI in % ([6]; 80 g/ha): 80%; Post-emergence effect against VIOTR in % ([7]; 80 g/ha): 80%; Post-emergence effect against VIOTR in % ([7]; 320 g/ha): 80%; Post-emergence effect against PHBPU in % ([8]; 80 g/ha): 90%; Post-emergence effect against MATIN in % ([9]; 20 g/ha): 80%; Post-emergence effect against MATIN in % ([9]; 80 g/ha): 90%; Post-emergence effect against MATIN in % ([9]; 320 g/ha): 90%; Post-emergence effect against POLCO in % ([10]; 80 g/ha): 80%; Post-emergence effect against POLCO in % ([10]; 320 g/ha): 80%; Post-emergence effect against VERPE in % ([12]; 20 g/ha): 80%; Post-emergence effect against VERPE in % ([12]; 80 g/ha): 80%; Post-emergence effect against VERPE in % ([12]; 320 g/ha): 90%
COC(=O)C(OC)Oc1nn(-c2cccc(C)c2F)c(-c2ccc(F)nc2)c1Br (stereo not drawn) [Example I-114] | 90 | 100 | 80 | 90 | 90 | 90 | 80 | 0 |  |  |  |  |  |  |  |  |  |  |  |  | Post-emergence effect against ABUTH ([1]; 80 g/ha): 80%; Post-emergence effect against LOLRI in % [16]: 80%; Post-emergence effect against ECHCG [4]: 80%; Post-emergence effect against ECHCG in % ([4]; 80 g/ha): 90%; Post-emergence effect against VIOTR in % ([7]; 320 g/ha): 90%; Post-emergence effect against PHBPU in % ([8]; 80 g/ha): 80%; Post-emergence effect against MATIN in % ([9]; 80 g/ha): 80%; Post-emergence effect against MATIN in % ([9]; 320 g/ha): 90%; Post-emergence effect against AMARE ([11]; 20 g/ha): 80%; Post-emergence effect against AMARE ([11]; 80 g/ha): 80%; Post-emergence effect against VERPE in % ([12]; 20 g/ha): 80%; Post-emergence effect against VERPE in % ([12]; 80 g/ha): 80%; Post-emergence effect against VERPE in % ([12]; 320 g/ha): 90%; Post-emergence effect against TRZAS ([14]; 80 g/ha, visual rating about 3 weeks after treatment, crop plant): 20%
COC(=O)C(OC)Oc1nn(-c2ncccc2F)c(-c2ccc(F)nc2)c1I (stereo not drawn) [Example I-39] |  |  |  |  |  |  |  |  |  | 90 | 100 | 90 | 90 | 80 | 90 | 90 | 80 | 90 | 100 | 0 | pest or weed control at 320 g/ha [3]: 100%; pest or weed control at 80 g/ha ([8]; 80 g/ha): 90%; pest or weed control at 80 g/ha ([10]; Fallopia convolvulus, 504 h, 80 g/ha, read-out: Post-emergence effect against POLCO in %): 90%; pest or weed control at 320 g/ha [10, 18]: 90%; plant injury at 20 g/ha [15]: 20%
COC(Oc1nn(-c2cc(F)ccc2F)c(-c2cncc(F)c2)c1Br)C(=O)O (stereo not drawn) [Example I-32] |  |  |  |  |  |  |  |  |  | 90 | 90 | 90 | 90 | 90 | 90 | 90 | 80 | 90 | 90 | 10 | pest or weed control at 80 g/ha ([1]; 80 g/ha): 80%; pest or weed control at 80 g/ha ([4]; 80 g/ha): 90%; pest or weed control at 320 g/ha [5, 20]: 90%; pest or weed control at 80 g/ha ([9]; Tripleurospermum inodorum, 504 h, 80 g/ha, read-out: Post-emergence effect against MATIN in %): 90%; pest or weed control at 320 g/ha [9, 21]: 90%; pest or weed control at 320 g/ha [10, 18]: 80%; pest or weed control at 80 g/ha ([12]; 80 g/ha): 90%; plant injury at 20 g/ha [15]: 10%
CCOC(Oc1nn(-c2ccccc2F)c(-c2ccc(F)nc2)c1Br)C(=O)OCCC(=O)OC (single isomer, unassigned) [Example I-59, Methyl 3-{[(2RS)-2-{[4-bromo-1-(2-fluorophenyl)-5-(6-fluoropyridin-3-yl)-1H-pyrazol-3-yl]oxy}-2-ethoxyethanoyl]oxy}propanoate] |  |  |  |  |  |  |  |  |  | 90 |  | 90 | 90 | 90 | 90 | 90 |  | 80 | 80 | 0 | pest or weed control at 80 g/ha ([1]; 80 g/ha): 90%; pest or weed control at 320 g/ha ([2]; 504 h, read-out: Post-emergence effect against KCHSC in %): 80%; pest or weed control at 320 g/ha [3]: 90%; pest or weed control at 80 g/ha ([4]; 80 g/ha): 90%; pest or weed control at 80 g/ha ([5]; Digitaria sanguinalis, 504 h, 80 g/ha, read-out: Post-emergence effect against DIGSA): 80%; pest or weed control at 320 g/ha [5, 20]: 90%; pest or weed control at 80 g/ha ([6]; Setaria viridis, 504 h, 80 g/ha, read-out: Post-emergence effect against SETVI in %): 80%; pest or weed control at 80 g/ha ([8]; 80 g/ha): 90%; pest or weed control at 320 g/ha [9, 21]: 80%; pest or weed control at 80 g/ha ([12]; 80 g/ha): 80%; plant injury at 20 g/ha [15]: 20%
COC(Oc1nn(-c2ccccc2F)c(-c2ccc(F)nc2)c1Br)C(=O)O (stereo not drawn) [Example I-25] |  |  |  |  |  |  |  | 10 | 20 | 80 | 90 | 80 | 90 |  | 80 | 90 | 90 | 90 |  |  | pest or weed control at 320 g/ha [5, 20]: 90%; pest or weed control at 320 g/ha [9, 21]: 80%; pest or weed control at 80 g/ha ([11]; Amaranthus retroflexus, 504 h, 80 g/ha, read-out: Post-emergence effect against AMARE): 80%; pest or weed control at 80 g/ha ([12]; 80 g/ha): 80%
COC(=O)CCOC(=O)C(OC)Oc1nn(-c2ncccc2F)c(-c2ccc(F)nc2)c1C1CC1 (single isomer, unassigned) [Example I-81] | 90 | 90 | 80 | 90 | 80 | 80 | 90 | 0 | 0 |  |  |  |  |  |  |  |  |  |  |  | Post-emergence effect against KCHSC in % [2]: 90%; Post-emergence effect against ALOMY [3]: 90%; Post-emergence effect against POLCO in % ([10]; 320 g/ha): 90%; Post-emergence effect at 80 g/ha against ZEAMX in % ([15]; 80 g/ha): 0%
